Results taken from US20230167094A1, “H4 ANTAGONIST COMPOUNDS” (Heptares Therapeutics Limited, priority 2020, published 2023).

Key:
[1] = target: T1, human H4 receptor (Homo sapiens, UniProt Q9H3N8); assay: H4 Antagonist Functional Dynamic Mass Redistribution Assay; format: cell-based; conditions: HEKf cells expressing human H4 receptor; antagonist mode vs histamine EC80; pKb by Cheng-Prusoff; read-out: Human H4 DMR fpKb (converted)
T1 construct: expressed in transfected cells; host or cells: HEKf cells infected with baculovirus
T1 sequence (Q9H3N8 whole entry): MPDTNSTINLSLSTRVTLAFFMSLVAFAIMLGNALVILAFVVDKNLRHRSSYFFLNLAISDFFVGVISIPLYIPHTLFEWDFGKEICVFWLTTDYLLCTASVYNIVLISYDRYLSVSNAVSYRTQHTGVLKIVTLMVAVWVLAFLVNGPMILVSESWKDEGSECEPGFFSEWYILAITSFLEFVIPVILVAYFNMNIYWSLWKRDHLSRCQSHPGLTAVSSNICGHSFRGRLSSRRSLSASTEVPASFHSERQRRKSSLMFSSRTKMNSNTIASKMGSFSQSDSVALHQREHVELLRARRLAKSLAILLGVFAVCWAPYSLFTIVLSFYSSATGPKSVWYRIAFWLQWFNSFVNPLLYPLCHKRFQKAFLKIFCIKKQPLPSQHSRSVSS
Protocol: H4 Antagonist Functional Dynamic Mass Redistribution Assay
HEKf cells were infected using baculovirus expressing the human H4 receptor, plated into fibronectin-coated EPIC plates at a density of 10,000 cells/well and incubated overnight at 37° C. The medium on cells was changed to […] HBSS with 20 mM HEPES per well and 30 nL DMSO were added per well by LabCyte ECHO acoustic dispensing. Following 2 h equilibration at room temperature, 30 nL of H4 ligands prepared in DMSO were stamped by LabCyte ECHO acoustic dispensing into seeded EPIC plates and cellular dynamic mass redistribution was monitored using a Corning EPIC plate reader. Following 45 min measurement, 30 nL/well of histamine EC80 was added and monitored to obtain antagonist assay data. Maximum baseline-corrected responses in pm were used to generate concentration response curves. EC50 values were generated using a 4-parameter logistical fit equation to quantify agonist potencies. Functional antagonist affinity values were generated using the Cheng-Prusoff equation to calculate a pKb value using the antagonist assay data.

[2] = target: hERG (Homo sapiens, UniProt Q12809); assay: hERG assay (QPatch automated patch clamp, CHO cells); format: cell-based; conditions: CHO cells stably expressing hERG; 1, 3, 10 and 30 μM; tail current; room temperature; read-out: hERG pIC50 (converted)
Sequence of hERG (Q12809 whole entry): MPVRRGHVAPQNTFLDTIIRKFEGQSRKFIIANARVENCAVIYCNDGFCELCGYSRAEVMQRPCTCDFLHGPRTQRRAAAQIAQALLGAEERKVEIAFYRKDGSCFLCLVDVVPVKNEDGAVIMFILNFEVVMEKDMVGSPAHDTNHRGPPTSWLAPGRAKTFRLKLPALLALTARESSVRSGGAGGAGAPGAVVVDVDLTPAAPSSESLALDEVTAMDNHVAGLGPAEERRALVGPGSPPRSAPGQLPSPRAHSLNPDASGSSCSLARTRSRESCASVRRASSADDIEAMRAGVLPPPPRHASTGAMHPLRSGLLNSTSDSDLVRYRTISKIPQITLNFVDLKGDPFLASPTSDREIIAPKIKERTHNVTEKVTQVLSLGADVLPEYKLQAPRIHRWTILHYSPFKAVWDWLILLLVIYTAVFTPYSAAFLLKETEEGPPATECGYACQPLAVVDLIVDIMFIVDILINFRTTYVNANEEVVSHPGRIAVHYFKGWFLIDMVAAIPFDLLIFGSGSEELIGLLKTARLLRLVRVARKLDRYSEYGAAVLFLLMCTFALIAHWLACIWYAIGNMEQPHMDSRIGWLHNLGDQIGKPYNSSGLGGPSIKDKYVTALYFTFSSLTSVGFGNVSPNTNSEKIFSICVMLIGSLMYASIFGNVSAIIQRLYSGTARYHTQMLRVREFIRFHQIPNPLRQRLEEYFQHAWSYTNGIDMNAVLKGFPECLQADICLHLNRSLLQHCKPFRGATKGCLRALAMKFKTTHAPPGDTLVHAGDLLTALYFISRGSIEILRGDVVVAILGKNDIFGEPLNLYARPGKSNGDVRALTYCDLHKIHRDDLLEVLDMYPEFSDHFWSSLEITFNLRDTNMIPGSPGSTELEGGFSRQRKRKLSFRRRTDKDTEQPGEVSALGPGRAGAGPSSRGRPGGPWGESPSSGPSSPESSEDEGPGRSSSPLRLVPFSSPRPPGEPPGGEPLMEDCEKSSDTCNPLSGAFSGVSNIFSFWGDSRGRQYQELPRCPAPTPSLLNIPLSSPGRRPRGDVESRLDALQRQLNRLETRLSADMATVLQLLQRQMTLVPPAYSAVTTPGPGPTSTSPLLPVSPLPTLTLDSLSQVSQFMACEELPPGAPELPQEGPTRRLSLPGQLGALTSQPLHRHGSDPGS
Protocol: All experiments were performed on the QPatch automated patch clamp platform.
Series resistance (4-15 MΩ) was compensated by >80%.

Compound	Kb [1] [nM]	IC50 [2] [µM]
CNC1CN(c2cc(-c3cnn(C(F)F)c3)nc(N)n2)C1 [Example 1, 4-(1-(Difluoromethyl)-1H-pyrazol-4-yl)-6-(3-(methylamino)azetidin-1-yl)pyrimidin-2-amine]	1.26	> 100
CNC1CN(c2cc(-c3cnn(CC(F)(F)F)c3)nc(N)n2)C1 [Example 2, 4-(3-(Methylamino)azetidin-1-yl)-6-(1-(2,2,2-trifluoroethyl)-1H-pyrazol-4-yl)pyrimidin-2-amine]	15.8	> 100
CCn1cc(-c2cc(N3CC(NC)C3)nc(N)n2)cn1 [Example 3, 4-(1-Ethyl-1H-pyrazol-4-yl)-6-(3-(methylamino)azetidin-1-yl)pyrimidin-2-amine]	3.98	> 100
CNC1CN(c2cc(-c3cn(C(F)F)nc3C)nc(N)n2)C1 [Example 4, 4-(1-(Difluoromethyl)-3-methyl-1H-pyrazol-4-yl)-6-(3-(methylamino)azetidin-1-yl)pyrimidin-2-amine]	2.51	> 100
CN[C@@H]1CCN(c2cc(-c3cnn(C)c3Cl)nc(N)n2)C1 [Example 5, (R)-4-(5-Chloro-1-methyl-1H-pyrazol-4-yl)-6-(3-(methylamino)pyrrolidin-1-yl)pyrimidin-2-amine]	3.98	> 100
Nc1nc(-c2cnn(C(F)(F)F)c2)cc(N2CC(N)C2)n1 [Example 6, 4-(3-Aminoazetidin-1-yl)-6-(1-(trifluoromethyl)-1H-pyrazol-4-yl)pyrimidin-2-amine]	12.6	> 100
CCNC1CN(c2cc(-c3cnn(C(F)(F)F)c3)nc(N)n2)C1 [Example 7, 4-(3-(Ethylamino)azetidin-1-yl)-6-(1-(trifluoromethyl)-1H-pyrazol-4-yl)pyrimidin-2-amine]	7.94	42.7
CNC1CN(c2cc(-c3nn(C)cc3C)nc(N)n2)C1 [Example 8, 4-(1,4-Dimethyl-1H-pyrazol-3-yl)-6-(3-(methylamino)azetidin-1-yl)pyrimidin-2-amine]	7.94	23.4
CNC1CN(c2cc(-c3cnn(CC(F)F)c3)nc(N)n2)C1 [Example 9, 4-(1-(2,2-Difluoroethyl)-1H-pyrazol-4-yl)-6-(3-(methylamino)azetidin-1-yl)pyrimidin-2-amine]	12.6	> 100
CNC1CN(c2cc(-c3cnn(CCF)c3)nc(N)n2)C1 [Example 10, 4-(1-(2-Fluoroethyl)-1H-pyrazol-4-yl)-6-(3-(methylamino)azetidin-1-yl)pyrimidin-2-amine]	5.01	> 100
CNC1CN(c2cc(-c3cn(C(C)C)nc3C)nc(N)n2)C1 [Example 11, 4-(1-Isopropyl-3-methyl-1H-pyrazol-4-yl)-6-(3-(methylamino)azetidin-1-yl)pyrimidin-2-amine]	10	> 100
CNC1CN(c2cc(-c3cnn(CC(F)(F)F)c3C)nc(N)n2)C1 [Example 12, 4-(5-Methyl-1-(2,2,2-trifluoroethyl)-1H-pyrazol-4-yl)-6-(3-(methylamino)azetidin-1-yl)pyrimidin-2-amine]	7.94	38.9
CCn1cc(-c2cc(N3CC(NC)C3)nc(N)n2)c(C)n1 [Example 13, 4-(1-Ethyl-3-methyl-1H-pyrazol-4-yl)-6-(3-(methylamino)azetidin-1-yl)pyrimidin-2-amine]	10	> 100
CCn1cc(-c2cc(N3CC[C@@H](NC)C3)nc(N)n2)c(C)n1 [Example 14, (R)-4-(1-Ethyl-3-methyl-1H-pyrazol-4-yl)-6-(3-(methylamino)pyrrolidin-1-yl)pyrimidin-2-amine]	100	28.8
CNC1CN(c2cc(-c3cnn(C)c3Cl)nc(N)n2)C1 [Example 15, 4-(5-Chloro-1-methyl-1H-pyrazol-4-yl)-6-(3-(methylamino)azetidin-1-yl)pyrimidin-2-amine]	7.94	> 100
CNC1CN(c2cc(-c3cnn(C(F)F)c3C)nc(N)n2)C1 [Example 16, 4-(1-(Difluoromethyl)-5-methyl-1H-pyrazol-4-yl)-6-(3-(methylamino)azetidin-1-yl)pyrimidin-2-amine]	2	> 100
CNC1CN(c2cc(-c3n[nH]c(C(F)(F)F)c3C)nc(N)n2)C1 [Example 17, 4-(4-Methyl-5-(trifluoromethyl)-1H-pyrazol-3-yl)-6-(3-(methylamino)azetidin-1-yl)pyrimidin-2-amine]	1	> 100
CNC1CN(c2cc(-c3cn(C)nc3C)nc(N)n2)C1 [Example 18, 4-(1,3-Dimethyl-1H-pyrazol-4-yl)-6-(3-(methylamino)azetidin-1-yl)pyrimidin-2-amine]	7.94	> 100

Compound	Kb [1] [nM]	IC50 [2] [µM]
CNC1CN(c2cc(-c3cn(CC(F)(F)F)nc3C)nc(N)n2)C1 [Example 19, 4-(3-Methyl-1-(2,2,2-trifluoroethyl)-1H-pyrazol-4-yl)-6-(3-(methylamino)azetidin-1-yl)pyrimidin-2-amine]	50.1	> 31.6
CCn1ncc(-c2cc(N3CC(NC)C3)nc(N)n2)c1C [Example 21, 4-(1-Ethyl-5-methyl-1H-pyrazol-4-yl)-6-(3-(methylamino)azetidin-1-yl)pyrimidin-2-amine]	2.51	> 100
CNC1CN(c2cc(-c3cnn(C(C)C)c3C)nc(N)n2)C1 [Example 22, 4-(1-Isopropyl-5-methyl-1H-pyrazol-4-yl)-6-(3-(methylamino)azetidin-1-yl)pyrimidin-2-amine]	7.94	> 100
CNC1CN(c2cc(-c3cc(C)nn3C)nc(N)n2)C1 [Example 24, 4-(1,3-Dimethyl-1H-pyrazol-5-yl)-6-(3-(methylamino)azetidin-1-yl)pyrimidin-2-amine]	126	> 100
CCc1cc(-c2cc(N3CC(NC)C3)nc(N)n2)n(C)n1 [Example 25, 4-(3-Ethyl-1-methyl-1H-pyrazol-5-yl)-6-(3-(methylamino)azetidin-1-yl)pyrimidin-2-amine]	100	
CNC1CN(c2cc(-c3cc(Cl)nn3C)nc(N)n2)C1 [Example 26, 4-(3-Chloro-1-methyl-1H-pyrazol-5-yl)-6-(3-(methylamino)azetidin-1-yl)pyrimidin-2-amine]	15.8	> 100
CNC1CN(c2cc(-c3cc(C(F)(F)F)nn3C)nc(N)n2)C1 [Example 27, 4-(1-Methyl-3-(trifluoromethyl)-1H-pyrazol-5-yl)-6-(3-(methylamino)azetidin-1-yl)pyrimidin-2-amine]	15.8	44.7
CNC1CN(c2cc(-c3cn(C)nc3Cl)nc(N)n2)C1 [Example 29, 4-(3-Chloro-1-methyl-1H-pyrazol-4-yl)-6-(3-(methylamino)azetidin-1-yl)pyrimidin-2-amine]	1.58	> 100
CNC1CN(c2cc(-c3cnn(C)c3Br)nc(N)n2)C1 [Example 30, 4-(5-Bromo-1-methyl-1H-pyrazol-4-yl)-6-(3-(methylamino)azetidin-1-yl)pyrimidin-2-amine]	1.58	> 100
CNC1CN(c2cc(-c3cn(C)nc3Br)nc(N)n2)C1 [Example 31, 4-(3-Bromo-1-methyl-1H-pyrazol-4-yl)-6-(3-(methylamino)azetidin-1-yl)pyrimidin-2-amine]	7.94	> 31.6
CNC1CN(c2cc(-c3cc(C)[nH]n3)nc(N)n2)C1 [Example 35, 4-(5-Methyl-1H-pyrazol-3-yl)-6-(3-(methylamino)azetidin-1-yl)pyrimidin-2-amine]	3.98	> 31.6
CNC1CN(c2cc(-c3c[nH]nc3C(F)(F)F)nc(N)n2)C1 [Example 37, 4-(3-(Methylamino)azetidin-1-yl)-6-(3-(trifluoromethyl)-1H-pyrazol-4-yl)pyrimidin-2-amine]	31.6	> 31.6
CNC1CN(c2cc(-c3cn[nH]c3)nc(N)n2)C1 [Example 38, 4-(3-(Methylamino)azetidin-1-yl)-6-(1H-pyrazol-4-yl)pyrimidin-2-amine]	5.01	> 31.6
CNC1CN(c2cc(-c3c[nH]nc3C)nc(N)n2)C1 [Example 39, 4-(3-Methyl-1H-pyrazol-4-yl)-6-(3-(methylamino)azetidin-1-yl)pyrimidin-2-amine]	3.98	> 31.6
CCc1[nH]nc(-c2cc(N3CC(NC)C3)nc(N)n2)c1C [Example 40, 4-(5-Ethyl-4-methyl-1H-pyrazol-3-yl)-6-(3-(methylamino)azetidin-1-yl)pyrimidin-2-amine]		> 31.6
CCc1cc(-c2cc(N3CC(NC)C3)nc(N)n2)n[nH]1 [Example 41, 4-(5-Ethyl-1H-pyrazol-3-yl)-6-(3-(methylamino)azetidin-1-yl)pyrimidin-2-amine]	7.94	> 31.6
CNC1CN(c2cc(-c3[nH]nc(Cl)c3Cl)nc(N)n2)C1 [Example 42, 4-(4,5-Dichloro-1H-pyrazol-3-yl)-6-(3-(methylamino)azetidin-1-yl)pyrimidin-2-amine]	6.31	> 100
CN1CCN(C(=O)c2cc3cc(Cl)ccc3[nH]2)CC1 [JNJ-7777120, reference compound]		≥ 100
